Data: PubChem BioAssay AID248 (DTP/NCI, 2004)
Inconclusive results and toxic doses are left out. No stated cut-off is given here; in the data, active means T/C of 150% or more; inactive means T/C below 125%.

System: L1210 leukemia ip in BDF1 mice, survival T/C
Test: NCI In Vivo Anticancer Drug Screen. Data for tumor model L1210 Leukemia (intraperitoneal) in B6D2F1 (BDF1) mice
Details: endpoint: mean survival time, higher = longer survival
Summary of the method: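 Ratio derived from survival: compound-dosed mice over vehicle-dosed mice, all bearing a transplantable tumor.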

[1] = dose: 6.25 mg/kg/injection, schedule: Q01DX009 (ip), vehicle: saline with Tween-80
[2] = dose: 12.5 mg/kg/injection, schedule: Q01DX009 (ip), vehicle: saline with Tween-80
[3] = dose: 12.5 mg/kg/injection, schedule: Q04DX002 (ip), vehicle: saline with Tween-80
[4] = dose: 50.0 mg/kg/injection, schedule: Q01DX001 (ip), vehicle: saline
[5] = dose: 25.0 mg/kg/injection, schedule: Q04DX003 (ip), vehicle: saline with Tween-80
[6] = dose: 100.0 mg/kg/injection, schedule: Q04DX003 (ip), vehicle: saline with Tween-80
[7] = dose: 75.0 mg/kg/injection, schedule: Q01DX001 (ip), vehicle: saline
[8] = dose: 150.0 mg/kg/injection, schedule: Q01DX001 (ip), vehicle: saline
[9] = dose: 100.0 mg/kg/injection, schedule: Q01DX001 (ip), vehicle: saline
[10] = dose: 100.0 mg/kg/injection, schedule: Q01DX009 (ip), vehicle: saline with Tween-80
[11] = dose: 200.0 mg/kg/injection, schedule: Q01DX001 (ip), vehicle: saline
[12] = dose: 200.0 mg/kg/injection, schedule: Q01DX009 (ip), vehicle: saline with Tween-80
[13] = dose: 200.0 mg/kg/injection, schedule: Q04DX003 (ip), vehicle: saline with Tween-80
[14] = dose: 400.0 mg/kg/injection, schedule: Q01DX001 (ip), vehicle: saline
[15] = dose: 400.0 mg/kg/injection, schedule: Q01DX009 (ip), vehicle: saline with Tween-80
[16] = dose: 400.0 mg/kg/injection, schedule: Q04DX003 (ip), vehicle: saline with Tween-80
[17] = dose: 100.0 mg/kg/injection, schedule: Q01DX009 (ip), vehicle: Klucel (hydroxypropylcellulose) (HPC)
[18] = dose: 200.0 mg/kg/injection, schedule: Q01DX009 (ip), vehicle: Klucel (hydroxypropylcellulose) (HPC)
[19] = dose: 100.0 mg/kg/injection, schedule: Q04DX003 (ip), vehicle: Klucel (hydroxypropylcellulose) (HPC)
[20] = dose: 200.0 mg/kg/injection, schedule: Q04DX003 (ip), vehicle: Klucel (hydroxypropylcellulose) (HPC)
[21] = dose: 400.0 mg/kg/injection, schedule: Q04DX003 (ip), vehicle: Klucel (hydroxypropylcellulose) (HPC)
[22] = dose: 400.0 mg/kg/injection, schedule: Q01DX009 (ip), vehicle: Klucel (hydroxypropylcellulose) (HPC)

Measured: T/C

CC(C)OC(=O)Nc1ccncc1
inactive: dose: 3.13 mg/kg/injection, schedule: Q01DX009 (ip), vehicle: saline with Tween-80 93 % of control | [1] 97 % of control | dose: 6.25 mg/kg/injection, schedule: Q04DX002 (ip), vehicle: saline with Tween-80 110 % of control | [2] 101 % of control | [3] 96 % of control

CCCCCCN(CCCCCC)C(F)(F)C(=O)Nc1ccc(S(=O)(=O)c2ccc(NC(=O)C(F)(F)N(CCCCCC)CCCCCC)cc2)cc1
inactive: dose: 12.5 mg/kg/injection, schedule: Q01DX001 (ip), vehicle: saline 105 % of control | dose: 25.0 mg/kg/injection, schedule: Q01DX001 (ip), vehicle: saline 100 % of control | [4] 107 % of control

CCCC/C(C)=N/Nc1ccc([N+](=O)[O-])cc1[N+](=O)[O-]
inactive: [3] 98 % of control | dose: 25.0 mg/kg/injection, schedule: Q04DX002 (ip), vehicle: saline with Tween-80 106 % of control | dose: 50.0 mg/kg/injection, schedule: Q04DX002 (ip), vehicle: saline with Tween-80 98 % of control

CCCCCCCCCCCCCCCCCc1nc(N)nc(N(C)C)n1
inactive: [5] 97 % of control | dose: 50.0 mg/kg/injection, schedule: Q04DX003 (ip), vehicle: saline with Tween-80 96 % of control | [6] 97 % of control

COc1cc(CCN)cc(OC)c1OC
inactive: [7] 104 % of control | [8] 103 % of control | dose: 300.0 mg/kg/injection, schedule: Q01DX001 (ip), vehicle: saline 104 % of control

O=C(O)C1C2CC3C(OC(=O)C31)C2Br (stereo not given)
inactive: [9] 104 % of control | [10] 91 % of control | [6] 91 % of control | [11] 94 % of control | [12] 96 % of control | [13] 100 % of control | [14] 97 % of control | [15] 91 % of control | [16] 104 % of control

CC1=N/C(=C/c2ccccc2)C(=O)O1
inactive: [6] 97 % of control | [13] 92 % of control | [16] 98 % of control

CC/C=C(/C#N)CC
inactive: dose: 100.0 mg/kg/injection, schedule: Q04DX002 (ip), vehicle: saline with Tween-80 104 % of control | dose: 200.0 mg/kg/injection, schedule: Q04DX002 (ip), vehicle: saline with Tween-80 93 % of control

O=C1CC2CC1C1C(=O)OC(=O)C21 (stereo not given)
inactive: dose: 75.0 mg/kg/injection, schedule: Q01DX001 (ip), vehicle: acetone 91 % of control | dose: 150.0 mg/kg/injection, schedule: Q01DX001 (ip), vehicle: acetone 104 % of control | dose: 300.0 mg/kg/injection, schedule: Q01DX001 (ip), vehicle: acetone 98 % of control

O=C(O)c1c(Br)c(Br)c(Br)c(Br)c1C(=O)Nc1ccccc1C(F)(F)F
inactive: [17] 101 % of control | [18] 93 % of control

O=C(c1ccccc1)c1ccccc1O
inactive: dose: 50.0 mg/kg/injection, schedule: Q01DX001 (ip), vehicle: other 90 % of control | dose: 100.0 mg/kg/injection, schedule: Q01DX001 (ip), vehicle: other 93 % of control | dose: 200.0 mg/kg/injection, schedule: Q01DX001 (ip), vehicle: other 101 % of control | dose: 400.0 mg/kg/injection, schedule: Q01DX001 (ip), vehicle: other 95 % of control

CC12CCC(O)CC1CCC1C2CCC2(C)C1CC1NC12 (stereo not given)
inactive: dose: 100.0 mg/kg/injection, schedule: Q01DX001 (sc), vehicle: steriod suspending solution 92 % of control | dose: 200.0 mg/kg/injection, schedule: Q01DX001 (sc), vehicle: steriod suspending solution 94 % of control

O=C(Nc1cc([N+](=O)[O-])ccc1F)Nc1ccccc1C(F)(F)F
inactive: [19] 96 % of control | [20] 94 % of control | [21] 91 % of control

Cc1cc(C)[n+]2ccccc2n1
inactive: [7] 102 % of control | [8] 98 % of control

O=c1[nH]cnc2c1cnn2-c1ccccc1
inactive: [17] 104 % of control | [18] 104 % of control | [22] 112 % of control

O=c1c2c([nH]c3ccccc13)CCCC2
inactive: dose: 100.0 mg/kg/injection, schedule: Q01DX001 (ip), vehicle: Klucel (hydroxypropylcellulose) (HPC) 97 % of control | [19] 97 % of control | dose: 200.0 mg/kg/injection, schedule: Q01DX001 (ip), vehicle: Klucel (hydroxypropylcellulose) (HPC) 88 % of control | [20] 94 % of control | dose: 400.0 mg/kg/injection, schedule: Q01DX001 (ip), vehicle: Klucel (hydroxypropylcellulose) (HPC) 93 % of control | [21] 101 % of control

Cc1ccc(C2(CO)OCC(O)C(O)C2O)cc1 (stereo not given)
inactive: [9] 100 % of control | [11] 96 % of control | [14] 98 % of control

CCCCCCCCCCCCCCCCCC(=O)N/N=C/C(C=C=C(C)C)(CC)CCCC (stereo not given)
inactive: [17] 101 % of control | [18] 96 % of control | [22] 96 % of control

N#Cc1cccc(OCCOc2cccc3ccccc23)c1
inactive: dose: 100.0 mg/kg/injection, schedule: Q01DX001 (ip), vehicle: saline with Tween-80 96 % of control | dose: 200.0 mg/kg/injection, schedule: Q01DX001 (ip), vehicle: saline with Tween-80 94 % of control | dose: 400.0 mg/kg/injection, schedule: Q01DX001 (ip), vehicle: saline with Tween-80 87 % of control

CCC(CCc1ccccn1)C(=O)c1ccccc1 (stereo not given)
inactive: dose: 75.0 mg/kg/injection, schedule: Q01DX001 (ip), vehicle: carboxymethylcellulose (CMC) 100 % of control | dose: 150.0 mg/kg/injection, schedule: Q01DX001 (ip), vehicle: carboxymethylcellulose (CMC) 96 % of control | dose: 300.0 mg/kg/injection, schedule: Q01DX001 (ip), vehicle: carboxymethylcellulose (CMC) 94 % of control

COc1c(NC(=O)Nc2ccccc2Cl)cccc1[N+](=O)[O-]
inactive: dose: 400.0 mg/kg/injection, schedule: Q04DX002 (ip), vehicle: saline with Tween-80 90 % of control

Br/C(=N\Nc1nn[nH]n1)c1ccccc1
inactive: [10] 93 % of control | [12] 98 % of control | [15] 95 % of control

CCCCC(/C=C/c1ccc2ccccc2n1)CC (stereo not given)
inactive: [4] 103 % of control | [9] 113 % of control

CC(F)(F)C(F)(F)C(=O)CC(=O)C(F)(F)F.CC(F)(F)C(F)(F)C(=O)CC(=O)C(F)(F)F.[Cu]
inactive: [1] 88 % of control | dose: 6.25 mg/kg/injection, schedule: Q04DX003 (ip), vehicle: saline with Tween-80 91 % of control | [2] 101 % of control | dose: 12.5 mg/kg/injection, schedule: Q04DX003 (ip), vehicle: saline with Tween-80 95 % of control | dose: 25.0 mg/kg/injection, schedule: Q01DX009 (ip), vehicle: saline with Tween-80 90 % of control | [5] 95 % of control
